In ChEMBL document CHEMBL5291721, “A preclinical secondary pharmacology resource illuminates target-adverse drug reaction associations of marketed drugs” (Nat Commun, 2023):
*1 amine or outer side, *2 acyl side, *3 side chain or, on linkers, in order; H or OH if unused. Where a SMILES comes first, the peptide text is derived from it. Bridges are numbered along the chain shown (N, C = ends). [ ]: non-standard residue; d: D form. The star is where a group is joined. hTyr(3S-OH,4S-OH,3'-OSO3H) = N[C@H](C(=O)O)[C@H](O)[C@@H](O)c1ccc(O)c(OS(=O)(=O)O)c1; Orn(4R-OH,5R-OH) = O=C([C@H](C[C@@H](O)[C@@H](O)N[*:3])N[*:1])[*:2]; Pro(3S-OH,4S-Me) = C[C@H]1CN[C@H](C(=O)O)[C@H]1O; X1 = CCCCCOc1ccc(-c2cc(-c3ccc(C(=O)*)cc3)no2)cc1; Gln(3R-OH) = NC(=O)C[C@@H](O)[C@H](N)C(=O)O; Hyp = O=C(O)[C@@H]1C[C@@H](O)CN1

Columns and labels:
Androgen receptor = molecular target: T1, Androgen receptor (Homo sapiens, UniProt P10275)
T1 sequence (P10275 whole entry): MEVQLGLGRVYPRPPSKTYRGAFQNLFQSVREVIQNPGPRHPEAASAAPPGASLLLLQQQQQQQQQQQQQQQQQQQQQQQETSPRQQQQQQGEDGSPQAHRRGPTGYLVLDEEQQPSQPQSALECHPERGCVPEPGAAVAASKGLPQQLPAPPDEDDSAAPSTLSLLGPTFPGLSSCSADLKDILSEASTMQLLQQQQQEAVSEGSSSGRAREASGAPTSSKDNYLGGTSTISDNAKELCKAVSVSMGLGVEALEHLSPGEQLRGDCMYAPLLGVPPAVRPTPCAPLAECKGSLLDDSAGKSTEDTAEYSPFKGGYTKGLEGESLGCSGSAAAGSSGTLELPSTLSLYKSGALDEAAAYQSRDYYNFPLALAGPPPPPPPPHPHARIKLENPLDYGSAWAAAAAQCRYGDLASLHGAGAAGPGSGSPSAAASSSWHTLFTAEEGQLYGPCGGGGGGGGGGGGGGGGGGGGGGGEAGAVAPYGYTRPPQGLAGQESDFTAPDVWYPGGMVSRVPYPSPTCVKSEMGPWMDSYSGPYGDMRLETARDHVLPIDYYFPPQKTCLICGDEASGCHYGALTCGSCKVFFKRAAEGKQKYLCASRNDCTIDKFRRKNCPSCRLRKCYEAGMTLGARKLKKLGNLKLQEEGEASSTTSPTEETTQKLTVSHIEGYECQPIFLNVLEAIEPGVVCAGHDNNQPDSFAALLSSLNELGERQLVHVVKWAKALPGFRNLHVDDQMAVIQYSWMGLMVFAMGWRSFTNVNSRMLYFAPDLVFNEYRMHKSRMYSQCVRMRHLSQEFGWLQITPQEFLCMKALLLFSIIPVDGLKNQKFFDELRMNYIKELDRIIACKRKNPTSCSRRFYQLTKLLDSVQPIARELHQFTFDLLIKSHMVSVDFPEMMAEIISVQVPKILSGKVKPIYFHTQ

Mu-type opioid receptor = Mu-type opioid receptor (Homo sapiens, UniProt P35372); experiment: biochemical; type: functional
Sequence of Mu-type opioid receptor (P35372 whole entry): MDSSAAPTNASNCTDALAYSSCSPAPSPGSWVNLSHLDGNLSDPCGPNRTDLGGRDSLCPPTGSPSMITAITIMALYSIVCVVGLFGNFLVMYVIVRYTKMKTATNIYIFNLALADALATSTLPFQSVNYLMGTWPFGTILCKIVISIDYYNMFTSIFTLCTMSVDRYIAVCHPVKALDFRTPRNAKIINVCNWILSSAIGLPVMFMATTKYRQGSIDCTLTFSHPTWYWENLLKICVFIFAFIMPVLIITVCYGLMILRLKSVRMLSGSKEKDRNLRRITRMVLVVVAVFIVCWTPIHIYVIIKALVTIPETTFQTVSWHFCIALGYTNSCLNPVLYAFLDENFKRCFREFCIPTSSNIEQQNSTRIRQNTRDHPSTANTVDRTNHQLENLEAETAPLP

Cannabinoid receptor 1 = Cannabinoid receptor 1 (Homo sapiens, UniProt P21554)
Sequence of Cannabinoid receptor 1 (P21554 whole entry): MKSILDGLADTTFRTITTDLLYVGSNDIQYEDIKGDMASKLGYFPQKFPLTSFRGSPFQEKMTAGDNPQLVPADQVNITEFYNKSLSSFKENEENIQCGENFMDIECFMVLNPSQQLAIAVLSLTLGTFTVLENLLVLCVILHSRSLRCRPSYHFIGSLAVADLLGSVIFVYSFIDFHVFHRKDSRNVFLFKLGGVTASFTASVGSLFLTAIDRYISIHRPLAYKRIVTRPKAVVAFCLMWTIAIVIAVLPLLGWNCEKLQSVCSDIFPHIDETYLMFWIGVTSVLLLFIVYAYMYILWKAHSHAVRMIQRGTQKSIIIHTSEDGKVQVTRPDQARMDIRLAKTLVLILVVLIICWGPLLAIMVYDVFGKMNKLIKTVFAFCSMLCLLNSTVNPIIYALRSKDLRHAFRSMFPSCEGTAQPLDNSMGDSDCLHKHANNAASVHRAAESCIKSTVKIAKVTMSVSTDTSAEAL

[1] = molecular target: 5-hydroxytryptamine receptor 2A (Homo sapiens, UniProt P28223); type: functional, cell-based
Sequence of 5-hydroxytryptamine receptor 2A (P28223 whole entry): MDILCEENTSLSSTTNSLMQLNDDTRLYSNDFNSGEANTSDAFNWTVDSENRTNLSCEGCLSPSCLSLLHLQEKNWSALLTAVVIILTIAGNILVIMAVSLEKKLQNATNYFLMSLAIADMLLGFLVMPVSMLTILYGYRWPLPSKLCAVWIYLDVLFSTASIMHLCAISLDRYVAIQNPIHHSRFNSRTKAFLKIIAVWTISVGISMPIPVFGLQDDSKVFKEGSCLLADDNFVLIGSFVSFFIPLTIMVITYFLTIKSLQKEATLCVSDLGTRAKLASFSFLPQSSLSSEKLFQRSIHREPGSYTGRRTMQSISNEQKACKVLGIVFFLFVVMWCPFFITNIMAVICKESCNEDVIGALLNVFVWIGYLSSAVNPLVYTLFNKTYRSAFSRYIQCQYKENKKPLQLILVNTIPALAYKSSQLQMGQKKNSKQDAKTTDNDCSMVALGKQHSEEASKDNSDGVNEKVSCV

[2] = molecular target: T2, Alpha-1A adrenergic receptor (Homo sapiens, UniProt P35348)
T2 sequence (P35348 whole entry): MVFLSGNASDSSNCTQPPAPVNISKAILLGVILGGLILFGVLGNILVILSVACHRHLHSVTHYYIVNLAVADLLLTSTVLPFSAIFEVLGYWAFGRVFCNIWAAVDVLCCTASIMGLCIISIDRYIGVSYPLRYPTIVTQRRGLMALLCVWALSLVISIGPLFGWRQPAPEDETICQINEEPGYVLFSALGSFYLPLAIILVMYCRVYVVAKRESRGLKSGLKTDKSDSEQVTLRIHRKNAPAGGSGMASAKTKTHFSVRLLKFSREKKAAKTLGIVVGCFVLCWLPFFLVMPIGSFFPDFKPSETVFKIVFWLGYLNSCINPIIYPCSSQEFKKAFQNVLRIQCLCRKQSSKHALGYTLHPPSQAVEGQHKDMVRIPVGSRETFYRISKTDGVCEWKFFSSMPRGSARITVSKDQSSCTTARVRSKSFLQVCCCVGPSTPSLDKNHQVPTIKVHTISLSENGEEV

B1 bradykinin receptor = molecular target: T3, B1 bradykinin receptor (Homo sapiens, UniProt P46663)
T3 sequence (P46663 whole entry): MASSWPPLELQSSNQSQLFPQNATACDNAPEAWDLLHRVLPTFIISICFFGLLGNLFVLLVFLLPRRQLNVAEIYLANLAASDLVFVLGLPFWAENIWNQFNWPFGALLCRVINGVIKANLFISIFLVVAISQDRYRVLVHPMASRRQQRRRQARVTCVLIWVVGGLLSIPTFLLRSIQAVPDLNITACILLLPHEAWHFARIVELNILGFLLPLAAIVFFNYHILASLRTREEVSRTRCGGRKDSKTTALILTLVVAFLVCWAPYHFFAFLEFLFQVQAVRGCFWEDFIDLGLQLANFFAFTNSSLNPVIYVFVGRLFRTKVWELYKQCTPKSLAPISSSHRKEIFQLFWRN

[3] = molecular target: T4, Peroxisome proliferator-activated receptor gamma (Homo sapiens, UniProt P37231); type: functional
T4 sequence (P37231 whole entry): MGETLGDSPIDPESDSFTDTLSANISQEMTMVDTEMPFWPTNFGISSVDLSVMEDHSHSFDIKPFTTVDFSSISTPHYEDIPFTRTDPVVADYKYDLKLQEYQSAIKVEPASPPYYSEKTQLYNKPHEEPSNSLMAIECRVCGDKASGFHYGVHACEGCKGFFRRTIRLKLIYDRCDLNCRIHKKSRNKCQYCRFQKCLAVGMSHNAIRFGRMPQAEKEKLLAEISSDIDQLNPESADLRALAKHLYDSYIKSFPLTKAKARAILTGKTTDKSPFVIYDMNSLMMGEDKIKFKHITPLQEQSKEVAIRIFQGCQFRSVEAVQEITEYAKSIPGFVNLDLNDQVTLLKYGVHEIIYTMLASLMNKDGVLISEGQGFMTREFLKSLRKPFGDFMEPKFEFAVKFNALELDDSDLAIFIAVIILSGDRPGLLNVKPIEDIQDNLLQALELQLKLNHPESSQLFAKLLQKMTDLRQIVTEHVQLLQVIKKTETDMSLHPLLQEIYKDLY
Also: assay procedure not described here.

| SMILES | AC50 (Androgen receptor) [µM] | AC50 (Cannabinoid receptor 1) [µM] | AC50 [2] [µM] | further results |
| --- | --- | --- | --- | --- |
| COc1nccnc1NS(=O)(=O)c1ccc(N)cc1 | > 30 |  |  |  |
| NC(=O)c1nc(F)c[nH]c1=O | > 30 |  |  |  |
| CN(C)CCCN1C(=O)c2cc([N+](=O)[O-])ccc2Oc2ccccc21 | > 30 |  |  |  |
| CC(/C=C1\SC(=S)N(CC(=O)O)C1=O)=C\c1ccccc1 |  |  |  | AC50 (Mu-type opioid receptor): > 30 µM |
| O=C1CN2Cc3c(ccc(Cl)c3Cl)N=C2N1 [ANAGRELIDE] |  | > 10 | > 10 | AC50 [1]: > 30 µM |
| CNCC[C@@H](Oc1ccccc1C)c1ccccc1 [ATOMOXETINE] |  |  |  | AC50 (Mu-type opioid receptor): 18 µM |
| O=C(O)COc1nn(Cc2ccccc2)c2ccccc12 [BENDAZAC] | > 30 |  |  |  |
| CCc1oc2ccccc2c1C(=O)c1cc(Br)c(O)c(Br)c1 [BENZBROMARONE] |  | > 10 | > 10 |  |
| [H]/N=C(\N/C(=N/[H])NCCCCCCNC(=N)NC(=N)Nc1ccc(Cl)cc1)Nc1ccc(Cl)cc1 [CHLORHEXIDINE] |  | 3.07 | 0.607 | AC50 [1]: 1.83 µM; AC50 (Mu-type opioid receptor): > 10 µM |
| Clc1cccc(Cl)c1N=C1NCCN1 [CLONIDINE] |  | > 10 |  | AC50 (B1 bradykinin receptor): > 30 µM |
| CN(CC(=O)O)C(=N)N [CREATINE] | > 30 |  |  |  |
| N[C@@H](CSSC[C@H](N)C(=O)O)C(=O)O [CYSTINE] | > 30 |  |  |  |
| CN1C[C@H](C(=O)N[C@]2(C)O[C@@]3(O)[C@@H]4CCCN4C(=O)[C@H](Cc4ccccc4)N3C2=O)C[C@@H]2c3cccc4[nH]cc(c34)C[C@H]21 [DIHYDROERGOTAMINE] |  | > 10 | 0.0376 | AC50 (B1 bradykinin receptor): > 30 µM |
| CC1(C)O[C@@H]2C[C@H]3[C@@H]4C[C@H](F)C5=CC(=O)C=C[C@]5(C)[C@H]4[C@@H](O)C[C@]3(C)[C@]2(C(=O)CO)O1 [FLUNISOLIDE] |  |  |  | AC50 [3]: > 30 µM |
| Nc1nc(O)c2ncn(COC(CO)CO)c2n1 [GANCICLOVIR] |  |  |  | AC50 (Mu-type opioid receptor): > 30 µM |
| CC(C)(N)C(=O)N[C@H](Cc1c[nH]c2ccccc12)C(=O)N[C@H](Cc1c[nH]c2ccccc12)NC=O [MACIMORELIN] | > 30 |  |  |  |
| C=C1c2c(Cl)ccc(O)c2C(=O)C2=C(O)[C@]3(O)C(=O)C(C(N)=O)=C(O)[C@@H](N(C)C)[C@@H]3[C@@H](O)[C@H]12 [MECLOCYCLINE] | > 30 |  |  |  |
| Cc1cnc(NC(=O)C2=C(O)c3ccccc3S(=O)(=O)N2C)s1 [MELOXICAM] |  | > 10 | > 10 | AC50 (B1 bradykinin receptor): > 30 µM |

| SMILES | AC50 (Androgen receptor) [µM] | AC50 (Cannabinoid receptor 1) [µM] | AC50 [2] [µM] | further results |
| --- | --- | --- | --- | --- |
| Cc1cc2c(OCC(O)CNC(C)C)cccc2[nH]1 (stereo not drawn) [MEPINDOLOL] | > 30 |  |  |  |
| CC(=O)/N=c1/sc(S(N)(=O)=O)nn1C [METHAZOLAMIDE] |  | > 10 | > 10 | AC50 [1]: > 10 µM; AC50 (Mu-type opioid receptor): > 30 µM |
| CC[C@@H](CO)NC(=O)[C@@H]1C=C2c3cccc4[nH]cc(c34)C[C@H]2N(C)C1 [METHYLERGONOVINE] |  |  | 12 | AC50 (Mu-type opioid receptor): > 30 µM |
| CCCCCOc1ccc(-c2cc(-c3ccc(C(=O)N[C@H]4C[C@@H](O)[C@@H](O)NC(=O)[C@@H]5[C@@H](O)[C@@H](C)CN5C(=O)[C@H]([C@H](O)CC(N)=O)NC(=O)[C@H]([C@H](O)[C@@H](O)c5ccc(O)c(OS(=O)(=O)O)c5)NC(=O)[C@@H]5C[C@@H](O)CN5C(=O)[C@H]([C@@H](C)O)NC4=O)cc3)no2)cc1 [MICAFUNGIN] (X1-[Orn(4R-OH,5R-OH)]T[Hyp][hTyr(3S-OH,4S-OH,3'-OSO3H)][Gln(3R-OH)][Pro(3S-OH,4S-Me)]; lactam 1-C) | > 30 |  |  |  |
| CCOc1ccc2ccccc2c1C(=O)N[C@@H]1C(=O)N2[C@@H]1SC(C)(C)[C@@H]2C(=O)O [NAFCILLIN] | > 30 |  |  |  |
| CC(=O)Oc1ccccc1C(=O)Nc1ncc([N+](=O)[O-])s1 [NITAZOXANIDE] |  |  |  | AC50 [1]: 15 µM; AC50 (Mu-type opioid receptor): > 30 µM |
| CNCCC=C1c2ccccc2CCc2ccccc21 [NORTRIPTYLINE] |  |  | 0.114 | AC50 (Mu-type opioid receptor): > 30 µM |
| COc1ccnc(C[S+]([O-])c2nc3ccc(OC(F)F)cc3[nH]2)c1OC (stereo not drawn) [PANTOPRAZOLE] |  | > 10 | 10.6 | AC50 (B1 bradykinin receptor): > 30 µM |
| COc1ccc(Cc2nccc3cc(OC)c(OC)cc23)cc1OC [PAPAVERINE] |  |  |  | AC50 (Mu-type opioid receptor): > 30 µM |
| CC(C)COc1ccc(CNC(=O)N(Cc2ccc(F)cc2)C2CCN(C)CC2)cc1 [PIMAVANSERIN] | > 30 |  |  |  |
| CC(C)[N+](C)(CCOC(=O)C1c2ccccc2Oc2ccccc21)C(C)C [PROPANTHELINE] | > 30 |  |  |  |
| CNC(=O)c1cc(Oc2ccc(NC(=O)Nc3ccc(Cl)c(C(F)(F)F)c3)c(F)c2)ccn1 [REGORAFENIB] | > 30 |  |  | AC50 [1]: > 30 µM |
| CN(C)C(=O)c1nc(CNC(=O)CN)n(-c2ccc(Cl)cc2C(=O)c2ccccc2Cl)n1 [RILMAZAFONE] | > 30 |  |  |  |
| CC[C@H]1OC(=O)[C@H](C)[C@@H](O[C@H]2C[C@@](C)(OC)[C@@H](O)[C@H](C)O2)[C@H](C)[C@@H](O[C@@H]2O[C@H](C)C[C@H](N(C)C)[C@H]2O)[C@](C)(O)C[C@@H](C)/C(=N\OCOCCOC)[C@H](C)[C@@H](O)[C@]1(C)O [ROXITHROMYCIN] |  |  |  | AC50 [3]: > 30 µM |
| CCCCNc1ccc(C(=O)OCCN(C)C)cc1 [TETRACAINE] |  | > 10 | > 10 | AC50 (B1 bradykinin receptor): > 30 µM |
| Cn1c(=O)c2[nH]cnc2n(C)c1=O [THEOPHYLLINE] |  | > 10 | > 10 | AC50 (B1 bradykinin receptor): > 30 µM |
| CC1(C)O[C@@H]2[C@@H](CO[C@@]3(COS(N)(=O)=O)OC(C)(C)O[C@@H]23)O1 [TOPIRAMATE] |  | > 10 | > 10 | AC50 (B1 bradykinin receptor): > 30 µM |
| Cc1cc(CC(=O)O)n(C)c1C(=O)c1ccc(Cl)cc1 [ZOMEPIRAC] |  |  |  | AC50 [1]: > 30 µM; AC50 (Mu-type opioid receptor): > 30 µM |
